Measurements: publication PMC12521615, “Accurate affinity models for SH2 domains from peptide binding assays and free‐energy regression” (Protein Science : A Publication of the Protein Society, 2025)
Non-standard residues stand in square brackets, D forms with d. Residues, ends and D or L forms follow the SMILES beside them. pY = N[C@@H](Cc1ccc(OP(=O)(O)O)cc1)C(=O)O

Assays:
c-Src SH2 domain = target: T1, c-Src SH2 domain (Homo sapiens, UniProt P12931); test: competitive fluorescence polarization, c-Src SH2 domain; format: binding; conditions: Table S3, unpaired validation; competition fluorescence polarization; probe FITC-Ahx-GDG-pY-EEISPLLL-NH2 30 nM; [SH2] 123-126 nM; mean
T1 construct: the SH2 domain from c‐Src kinase; His6-SUMO (N, cleaved yes); host or cells: Escherichia coli C43(DE3) with BirA helper plasmid
T1 sequence (P12931 151-248 limits assumed): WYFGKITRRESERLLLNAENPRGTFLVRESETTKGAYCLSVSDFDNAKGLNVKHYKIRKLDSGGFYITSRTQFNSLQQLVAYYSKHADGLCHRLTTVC
Source text: Measured binding constants (K D) from competition mode fluorescence polarization experiments were obtained using the purified SH2 domains used for the selection and chosen sets of peptides with a phosphorylated tyrosine exactly as described previously (Li et al., [2023]). […] Before performing the competition mode fluorescence polarization measurement, the K D of the probes for the respective SH2 domains was first measured in a direct mode of fluorescence polarization. […] Using the validation data for the Fyn SH2 domain, the range of predicted relative binding affinities that corresponds to the range between 1 nM and 100 μM, which is the dynamic range of reliable measurement of absolute binding affinities using our competitive fluorescence polarization setup, was defined and used to further filter the set of candidate phosphopeptides. A subset that evenly covers the chosen range of predicted relative affinities was finally picked for the validation measurements of the Lyn SH2 domain.

Grb2 SH2 domain = Grb2 SH2 domain (Homo sapiens, UniProt P62993); test: biochemical
Chain of Grb2 SH2 domain (P62993 60-152 limits assumed): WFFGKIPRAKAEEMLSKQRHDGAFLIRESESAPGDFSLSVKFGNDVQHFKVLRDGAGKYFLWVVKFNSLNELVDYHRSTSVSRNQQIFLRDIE
Source text: Measured binding constants (K D) from competition mode fluorescence polarization experiments were obtained using the purified SH2 domains used for the selection and chosen sets of peptides with a phosphorylated tyrosine exactly as described previously (Li et al., [2023]). […] (c‐Src SH2 consensus) was used as the probe, and for the Grb2 SH2 domain, the fluorescently labeled peptide FITC‐Ahx‐FDDPS(pY)VNVQN (Ahx = 6‐aminohexanoic acid) from the Y177 phospho‐tyrosine site of BCR. Before performing the competition mode fluorescence polarization measurement, the K D of the probes for the respective SH2 domains was first measured in a direct mode of fluorescence polarization. […] For the set of peptides where single point mutations were compared, phosphopeptides reported in the PhosphoSitePlus database (Hornbeck et al., [2015]) and previously shown to bind to the c‐Src SH2 domain (Li et al., [2023]) were chosen alongside their respective single point mutants. To choose phosphopeptides for validation of the Lyn SH2 domain, we started from all verified phosphopeptides found in PhosphoSitePlus, filtered based on their co‐expression with the Lyn kinase using the STRING database. Using the validation data for the Fyn SH2 domain, the range of predicted relative binding affinities that corresponds to the range between 1 nM and 100 μM, which is the dynamic range of reliable measurement of absolute binding affinities using our competitive fluorescence polarization setup, was defined and used to further filter the set of candidate phosphopeptides. A subset that evenly covers the chosen range of predicted relative affinities was finally picked for the validation measurements of the Lyn SH2 domain. For the c‐Src, Yes, and Blk SH2 domains, a combination of the previously chosen peptides was used, after verifying that their predicted relative affinities for the given SH2 domain fell within the same measurable range. All peptides containing phosphorylated tyrosine, both fluorescently labeled and non‐labeled, were produced by SynPeptide (China).

Compound | Kd (c-Src SH2 domain) [nM] | Kd (Grb2 SH2 domain) [nM]
CC(=O)N[C@@H](CCC(N)=O)C(=O)N[C@@H](CCCCN)C(=O)N[C@@H](CCC(=O)O)C(=O)N[C@@H](C)C(=O)N[C@@H](Cc1c[nH]cn1)C(=O)N[C@@H](Cc1c[nH]cn1)C(=O)N[C@@H](Cc1ccc(OP(=O)(O)O)cc1)C(=O)N[C@H](C(=O)N[C@@H](CC(N)=O)C(=O)N[C@@H](Cc1c[nH]c2ccccc12)C(=O)N[C@@H](CCCNC(=N)N)C(=O)N[C@H](C(=O)NCC(N)=O)[C@@H](C)O)C(C)C [Syn-G2-1] (Ac-QKEAHH[pY]VNWRTG-NH2) | 9660 | 31.8
CC[C@H](C)[C@H](NC(=O)[C@H](CCC(N)=O)NC(C)=O)C(=O)N[C@@H](CCC(=O)O)C(=O)N[C@H](C(=O)NCC(=O)N[C@H](C(=O)N[C@@H](Cc1ccc(OP(=O)(O)O)cc1)C(=O)N[C@@H](CCC(N)=O)C(=O)N[C@@H](CC(N)=O)C(=O)N1CCC[C@H]1C(=O)N[C@@H](Cc1c[nH]cn1)C(=O)N[C@@H](CC(N)=O)C(=O)NCC(N)=O)[C@@H](C)O)C(C)C [Syn-G2-7] (Ac-QIEVGT[pY]QNPHNG-NH2) | – | 3240
CC(=O)N[C@@H](CCC(N)=O)C(=O)N[C@@H](Cc1c[nH]cn1)C(=O)N[C@@H](CCCNC(=N)N)C(=O)N[C@@H](CC(C)C)C(=O)N[C@@H](CC(N)=O)C(=O)N[C@@H](CC(N)=O)C(=O)N[C@@H](Cc1ccc(OP(=O)(O)O)cc1)C(=O)N[C@@H](CCC(=O)O)C(=O)N[C@@H](CC(N)=O)C(=O)N[C@@H](CC(N)=O)C(=O)N[C@@H](CCCNC(=N)N)C(=O)N[C@@H](CC(C)C)C(=O)NCC(N)=O [Syn-G2-6] (Ac-QHRLNN[pY]ENNRLG-NH2) | – | 2250
